{"source": "patent US20030215817A1", "about": "“Modulation of gene expression in formation of fatty atherosclerotic lesions” (priority 2003, published 2003)", "key": {"LDL": {"test_system": "LDL", "settings": "Soma et al. 1998; cited from earlier work"}, "Rec1_12 (GCCC 232) mRNA": {"test_system": "Rec1_12 (GCCC 232) mRNA", "assay": "quantified RT-PCR, Rec1_12", "format": "in vivo, rabbit", "settings": "for Relative Abundance Rec1_12, 20 pg F: hypercholesterolemic plus lercanidipine racemate, eight weeks, H2 (normocholesterolemic)=1.0", "method": "(§1) Nineteen of the isolated DST clones were further validated using RT-PCR analyses; the data are presented in FIGS. 6-24 and in Tables 5-23, below. For each DST examined, the optimal annealing temperature and reagent conditions were determined for the corresponding set of primers (see Table 25) based on results from a preliminary experiment. In eight separate reactions, each set of primers was assayed to find the optimal conditions by adjusting the following four parameters: primer concentration, dNTP concentration, MgCl2 concentration, and number of Taq polymerase units. Once optimal conditions were determined, each DST was run in duplicate multiple simultaneous reactions which usually included at least four dilutions of template (cDNA library), plus control reactions lacking template, and six sequential data points for numbers of cycles.\n(§2) Reactions were performed using “Hot Start” PCR with the Clontech TaqStart antibody system (Cat. #5400-1). Each reaction contained 1 ml of the cDNA library dilution as template, determined amounts of AmpliTaq DNA polymerase (cat. #N808-0156), MgCl2, dNTPs (GibcoBRL cat. #10297-018), primer, and Clontech TaqStart Antibody in a 20 ml final reaction volume using 10×Taq buffer II (without MgCl2). Typically, a master mix containing all components except the template was prepared and aliquoted. Various templates were then added to these master mix samples and 20 ml volumes were subsequently dispensed into individual reaction tubes. At various times during the PCR run, tubes were removed sequentially on a predetermined schedule in order to quantitate expression of the target DST over a “window” of cycle times. After amplification, the samples were quantified via fluorimetry.\n(§3) PCR was performed at annealing temperatures that were five degrees above the average melting temperature of each primer pair. For primers greater than 10 bases (in a 0.05M salt solution), melting temperature was calculated using the following formula: Tm=59.9+41[% GC]−[675/Primer Length], where %GC is the decimal value. Following determination of the average melting temperature of the primer pair, the annealing temperature was determined by adding five degrees to the average melting temperature. PCR was performed using the following program: 1) 95 degrees Celsius, 3 minutes; 2) 95 degrees Celsius, 30 seconds; 3) TM+5 degrees Celsius, 30 seconds; 4) 72 degrees Celsius, for a time dependent on target length at 16 bp/second; 5) repeat steps 2-4 33 more cycles; 6) 72 degrees Celsius, 3 minutes; 7) 14 degrees Celsius, forever.\n(§4) Following temperature cycling, 2 ml of the PCR reaction was added to 140 ml of a 1:280 dilution of PicoGreen (Molecular Probes cat. #P-11495 (10×100 ml)) in TE pH 7.5 in a 96-well Costar UV microtiter plate (Fisher cat. #07-200623). The samples were mixed gently for 1.5 minutes and allowed to equilibrate at room temperature in the dark for 15 minutes. The concentration of the PCR products was quantified by fluorimetry using a PerSeptive Biosystems CytoFluor series 4000 multi-well plate reader.\n(§5) Background fluorescence was determined by using duplicate control samples that were cycled with all reaction components except the template. The mean value from these duplicate background control samples was subtracted from the corresponding experimental values prior to analyzing results. The sensitivity of the PicoGreen dsDNA assay is reported to be 250 pg/ml (50 pg dsDNA in a […] assay volume) using a fluorescence microplate reader such as was used in these measurements. […]"}, "[1]": {"test_system": "REC1_8 (MspI CCCG 243) mRNA", "assay": "quantified RT-PCR, Rec1_8", "format": "in vivo, rabbit", "settings": "for Relative Abundance Rec1_8, 20 pg F: hypercholesterolemic plus lercanidipine racemate, eight weeks, H2 (normocholesterolemic)=1.0", "method": "as §1, §2, §3, §4, §5"}, "[2]": {"test_system": "Rec1_1 (MspI AAGC 288) mRNA", "assay": "quantified RT-PCR, Rec1_1", "format": "in vivo, rabbit", "settings": "for Relative Abundance Rec1_1, 20 pg F: hypercholesterolemic plus lercanidipine racemate, eight weeks, H2 (normocholesterolemic)=1.0", "method": "as §1, §2, §3, §4\n(§6) Background fluorescence was determined by using duplicate control samples that were cycled with all reaction components except the template. The mean value from these duplicate background control samples was subtracted from the corresponding experimental values prior to analyzing results. The sensitivity of the PicoGreen dsDNA assay is reported to be 250 pg/ml (50 pg dsDNA in a […] assay volume) using a fluorescence microplate reader such as was used in these measurements.\nDST clone Rec1—1 was one of the clones further evaluated by RT-PCR. The TOGA analysis of clone Rec1—1, identified as MspI AAGC 288, is discussed above and illustrated in FIGS. 1 and 2. The results of the quantified RT-PCR for Rec1—1 are shown in FIG. 6 and in Table 5 (normalized to the normocholesterolemic control value (“H2”) at each time point). […]"}, "Rec1_22 (TGGG 164) mRNA": {"test_system": "Rec1_22 (TGGG 164) mRNA", "assay": "quantified RT-PCR, Rec1_22", "format": "in vivo, rabbit", "settings": "for Relative Abundance Rec1_22, 20 pg D: hypercholesterolemic plus lercanidipine R (−), eight weeks, H2 (normocholesterolemic)=1.0", "method": "as §1, §2, §3, §4, §6\nFIG. 22 is a graphical representation of the results of RT-PCR using 20 pg of clone REC1—22 template, in which the amount of PCR product (measured in arbitrary fluorescence units) is plotted against number of cycles, where polyA enriched mRNA was extracted from aortas of rabbits that were normocholesterolemic (filled diamonds, “H2”) and hypercholesterolemic plus lercanidipine R (−), eight weeks (filled squares, “D”)."}, "[3]": {"settings": "hypercholesterolemic animals receiving lercanidipine racemate"}}, "note": "Counter-ions that a name gives are not always drawn."}
{"smiles": "COC(=O)C1=C(C)NC(C)=C(C(=O)OC(C)(C)CN(C)CCC(c2ccccc2)c2ccccc2)C1c1cccc([N+](=O)[O-])c1", "note": "(racemic) [lercanidipine, lercanidipine hydrochloride]", "values": [{"measurement": "antioxidant for LDL in endothelial cell-mediated oxidation", "setting": "LDL", "result": "act as an antioxidant"}, {"measurement": "Relative Abundance Rec1_12, 20 pg F", "setting": "Rec1_12 (GCCC 232) mRNA; cycle 26", "result": 0.1}, {"measurement": "Relative Abundance Rec1_12, 20 pg F", "setting": "Rec1_12 (GCCC 232) mRNA; cycle 28", "result": 0.0}, {"measurement": "Relative Abundance Rec1_12, 20 pg F", "setting": "Rec1_12 (GCCC 232) mRNA; cycle 30", "result": 0.4}, {"measurement": "Relative Abundance Rec1_12, 20 pg F", "setting": "Rec1_12 (GCCC 232) mRNA; cycle 32", "result": 0.6}, {"measurement": "Relative Abundance Rec1_12, 20 pg F", "setting": "Rec1_12 (GCCC 232) mRNA; cycle 34", "result": 0.6}, {"measurement": "Relative Abundance Rec1_12, 20 pg F", "setting": "Rec1_12 (GCCC 232) mRNA; cycle 36", "result": 0.6}, {"measurement": "expression of Rec1_12 at 8 weeks (RT-PCR study), in words", "setting": "Rec1_12 (GCCC 232) mRNA; hypercholesterolemic animals receiving lercanidipine", "result": "decreased"}, {"measurement": "Relative Abundance Rec1_8, 20 pg F", "setting": "[1]; cycle 26", "result": 4.6}, {"measurement": "Relative Abundance Rec1_8, 20 pg F", "setting": "[1]; cycle 28", "result": 2.2}, {"measurement": "Relative Abundance Rec1_8, 20 pg F", "setting": "[1]; cycle 30", "result": 3.5}, {"measurement": "Relative Abundance Rec1_8, 20 pg F", "setting": "[1]; cycle 32", "result": 4.8}, {"measurement": "Relative Abundance Rec1_8, 20 pg F", "setting": "[1]; cycle 34", "result": 2.1}, {"measurement": "Relative Abundance Rec1_8, 20 pg F", "setting": "[1]; cycle 36", "result": 2.1}, {"measurement": "expression of Rec1_8 at 8 weeks (RT-PCR study), in words", "setting": "[1]; [3]", "result": "elevated"}, {"measurement": "Relative Abundance Rec1_1, 20 pg F", "setting": "[2]; cycle 26", "result": 7.7}, {"measurement": "Relative Abundance Rec1_1, 20 pg F", "setting": "[2]; cycle 28", "result": 4.9}, {"measurement": "Relative Abundance Rec1_1, 20 pg F", "setting": "[2]; cycle 30", "result": 3.2}, {"measurement": "Relative Abundance Rec1_1, 20 pg F", "setting": "[2]; cycle 32", "result": 2.1}, {"measurement": "Relative Abundance Rec1_1, 20 pg F", "setting": "[2]; cycle 34", "result": 1.5}, {"measurement": "expression of Rec1_1 at 8 weeks (RT-PCR study), in words", "setting": "[2]; [3]", "result": "elevated"}]}
{"smiles": "COC(=O)C1=C(C)NC(C)=C(C(=O)OC(C)(C)CN(C)CCC(c2ccccc2)c2ccccc2)[C@@H]1c1cccc([N+](=O)[O-])c1.Cl", "note": "(single isomer, unassigned) [(R)-lercanidipine]", "values": [{"measurement": "Relative Abundance Rec1_22, 20 pg D", "setting": "Rec1_22 (TGGG 164) mRNA; cycle 26", "result": 0.0}, {"measurement": "Relative Abundance Rec1_22, 20 pg D", "setting": "Rec1_22 (TGGG 164) mRNA; cycle 28", "result": 0.0}, {"measurement": "Relative Abundance Rec1_22, 20 pg D", "setting": "Rec1_22 (TGGG 164) mRNA; cycle 30", "result": 0.5}, {"measurement": "Relative Abundance Rec1_22, 20 pg D", "setting": "Rec1_22 (TGGG 164) mRNA; cycle 32", "result": 0.7}, {"measurement": "Relative Abundance Rec1_22, 20 pg D", "setting": "Rec1_22 (TGGG 164) mRNA; cycle 34", "result": 0.8}, {"measurement": "expression of Rec1_22 at 8 weeks (RT-PCR study), in words", "setting": "Rec1_22 (TGGG 164) mRNA; hypercholesterolemic animals receiving lercanidipine R (−) compared to normocholesterolemic animals", "result": "decreased"}]}
